Measured values reported in EP0863134A1, “2-(3,5-difluorophenyl)-3-(4-(methyl-sulfonyl)phenyl)-2-cyclopenten-1-one useful as an inhibitor of cyclooxygenase-2” (MERCK FROSST CANADA INC., priority 1997, dated 1998).

How the values were obtained:
[1] = target: T1, COX-1 (Homo sapiens, UniProt P23219); test: Human whole blood assay, COX-1 (clotting-induced TxB2 production); assay type: cell-based; set-up: platelets in whole blood contain a large amount of the COX-1 enzyme; endogenous in cells; host or cells: platelets in fresh human whole blood without anticoagulant; conditions: clotting-induced TxB2, 1 hour at 37°C
T1 sequence (P23219 24-599): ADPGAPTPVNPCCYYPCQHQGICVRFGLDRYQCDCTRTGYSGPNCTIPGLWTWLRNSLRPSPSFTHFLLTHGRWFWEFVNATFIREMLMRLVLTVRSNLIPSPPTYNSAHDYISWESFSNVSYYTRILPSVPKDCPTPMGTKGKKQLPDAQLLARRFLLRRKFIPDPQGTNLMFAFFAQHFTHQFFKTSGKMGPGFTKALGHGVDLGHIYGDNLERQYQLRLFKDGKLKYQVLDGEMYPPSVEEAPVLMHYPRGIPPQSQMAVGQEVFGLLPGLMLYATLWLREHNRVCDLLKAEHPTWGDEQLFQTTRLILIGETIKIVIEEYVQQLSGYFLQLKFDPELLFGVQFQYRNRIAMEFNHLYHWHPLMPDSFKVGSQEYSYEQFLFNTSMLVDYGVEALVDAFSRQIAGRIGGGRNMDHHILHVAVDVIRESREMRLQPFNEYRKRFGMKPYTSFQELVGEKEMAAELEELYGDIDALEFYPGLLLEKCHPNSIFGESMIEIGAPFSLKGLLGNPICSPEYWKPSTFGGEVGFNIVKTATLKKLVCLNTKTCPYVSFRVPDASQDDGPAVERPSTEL
Procedure: (§1) Human whole blood provides a protein and cell-rich milieu appropriate for the study of biochemical efficacy of anti-inflammatory compounds such as selective COX-2 inhibitors. […] This is consistent with the observation that COX-2 inhibitors have no effect on PGE2 production in normal blood. These inhibitors are active only after incubation of human whole blood with LPS, which induces COX-2. This assay can be used to evaluate the inhibitory effect of selective COX-2 inhibitors on PGE2 production. As well, platelets in whole blood contain a large amount of the COX-1 enzyme. Immediately following blood clotting, platelets are activated through a thrombin-mediated mechanism. […] Thus, the effect of test compounds on TxB2 levels following blood clotting can be examined and used as an index for COX-1 activity. Therefore, the degree of selectivity by the test compound can be determined by measuring the levels of PGE2 after LPS induction (COX-2) and TxB2 following blood clotting (COX-1) in the same assay. Fresh blood is collected into vacutainers containing no anticoagulants. […] In the assays, inhibition is determined by measuring the amount of a prostaglandin synthesized in the presence and absence of a putative inhibitor. […]

[2] = target: T1, COX-1; test: Assay of COX-1 activity from U937 cell microsomes; assay type: biochemical; set-up: endogenous in cells; host or cells: U937 cells, 100,000 x g microsomal fraction; conditions: PGE2
Procedure: U 937 cells are pelleted by centrifugation at 500 x g for 5 min and washed once with phosphate-buffered saline and repelleted. Cells are resuspended in homogenization buffer consisting of 0.1 M Tris-HCl, pH 7.4, 10 mM EDTA, 2 µg/ml leupeptin, 2 µg/ml soybean trypsin inhibitor, 2 µg/ml aprotinin and 1 mM phenyl methyl sulfonyl fluoride. The cell suspension is sonicated 4 times for 10 sec and is centrifuged at 10,000 x g for 10 min at 4° C. The supernatant is centrifuged at 100,000 x g for 1 hr at 4° C. The 100,000 x g microsomal pellet is resuspended in 0.1 M Tris-HCl, pH 7.4, 10 mM EDTA to approximately 7 mg protein/ml and stored at -80° C. Microsomal preparations are thawed immediately prior to use, subjected to a brief sonication, and then diluted to a protein concentration of 125 µg/ml in 0.1 M Tris-HCl buffer, pH 7.4 containing 10 mM EDTA, 0.5 mM phenol, 1 mM reduced glutathione and 1 µM hematin. Assays are performed in duplicate in a final volume of 250 µl. […] Samples are neutralized with 25 µl of 1 N NaOH prior to quantitation of PGE2 content by radioimmunoassay (Dupont-NEN or Amersham assay kits). […] In the assays, inhibition is determined by measuring the amount of a prostaglandin synthesized in the presence and absence of a putative inhibitor. […]

[3] = target: T1, COX-1; test: Whole cell assay for COX-1 using CHO transfected cell line CHO[hCOX-1]; assay type: cell-based; set-up: platelets in whole blood contain a large amount of the COX-1 enzyme; endogenous in cells; host or cells: platelets in fresh human whole blood without anticoagulant; conditions: CHO[hCOX-1] cells, 0.5 µM AA, PGE2
Procedure: (§2) Chinese hamster ovary (CHO) cell lines which have been stably transfected with an eukaryotic expression vector pCDNAIII containing either the human COX-1 or COX-2 cDNA's are used for the assay. These cell lines are referred to as CHO [hCOX-1] and CHO [hCOX-2], respectively. For cyclooxygenase assays, CHO[hCOX-1] cells from suspension cultures and CHO[hCOX-2] cells prepared by trypsinization of adherent cultures are harvested by centrifugation (300 x g, 10 min) and washed once in HBSS containing 15 mM HEPES, pH 7.4, and resuspended in HBSS, 15 mM HEPES, pH 7.4, at a cell concentration of 1.5 x 10^6 cells/ml. Drugs to be tested are dissolved in DMSO to 66.7-fold the highest test drug concentration. Compounds are typically tested at 8 concentrations in duplicate using serial 3-fold serial dilutions in DMSO of the highest drug concentration. […] Cyclooxygenase activity in the absence of test compounds is determined as the difference in PGE2 levels of cells challenged with arachidonic acid versus the PGE2 levels in cells mock-challenged with ethanol vehicle. Inhibition of PGE2 synthesis by test compounds is calculated as a percentage of the activity in the presence of drug versus the activity in the positive control samples. […] In the assays, inhibition is determined by measuring the amount of a prostaglandin synthesized in the presence and absence of a putative inhibitor. […]

[4] = test system: Rat Paw edema; test: Rat paw edema assay (carrageenan); assay type: in vivo, Male Sprague-Dawley rats; conditions: po, 1 hr before carrageenan, paw volume 3 hr later
Procedure: Male Sprague-Dawley rats (150-200 g) are fasted overnight and are given po, either vehicle (1% methocel or 5% Tween 80) or a test compound. One hr later, a line is drawn using a permanent marker at the level above the ankle in one hind paw to define the area of the paw to be monitored. The paw volume (V0) is measured using a plethysmometer (Ugo-Basile, Italy) based on the principle of water displacement. The animals are then injected subplantarly with 50 µl of 1% carrageenan solution in saline (FMC Corp, Maine) into the paw using an insulin syringe with a 25-gauge needle (i.e. 500 µg carrageenan per paw). Three hr later, the paw volume (V3) is measured and the increases in paw volume (V3 - VO) are calculated. The animals are sacrificed by CO2 asphyxiation and the absence or presence of stomach lesions scored. Data is compared with the vehicle-control values and percent inhibition calculated. All treatment groups are coded to eliminate observer bias.
Compounds of the present invention are inhibitors of COX-2 and are thereby useful in the treatment of COX-2 mediated diseases as enumerated above. The activities of compound A against cyclooxygenase may be seen in the representative results shown below in the Table. In the assays, inhibition is determined by measuring the amount of a prostaglandin synthesized in the presence and absence of a putative inhibitor. […]

[5] = target: T2, COX-2 (Homo sapiens, UniProt P35354); test: Whole cell assay for COX-2 using CHO transfected cell line CHO[hCOX-2]; assay type: cell-based; conditions: CHO[hCOX-2] cells, 10 µM AA, PGE2
T2 construct: endogenous in cells; host or cells: fresh heparinized human whole blood from volunteers, LPS-stimulated
T2 sequence (P35354 18-604): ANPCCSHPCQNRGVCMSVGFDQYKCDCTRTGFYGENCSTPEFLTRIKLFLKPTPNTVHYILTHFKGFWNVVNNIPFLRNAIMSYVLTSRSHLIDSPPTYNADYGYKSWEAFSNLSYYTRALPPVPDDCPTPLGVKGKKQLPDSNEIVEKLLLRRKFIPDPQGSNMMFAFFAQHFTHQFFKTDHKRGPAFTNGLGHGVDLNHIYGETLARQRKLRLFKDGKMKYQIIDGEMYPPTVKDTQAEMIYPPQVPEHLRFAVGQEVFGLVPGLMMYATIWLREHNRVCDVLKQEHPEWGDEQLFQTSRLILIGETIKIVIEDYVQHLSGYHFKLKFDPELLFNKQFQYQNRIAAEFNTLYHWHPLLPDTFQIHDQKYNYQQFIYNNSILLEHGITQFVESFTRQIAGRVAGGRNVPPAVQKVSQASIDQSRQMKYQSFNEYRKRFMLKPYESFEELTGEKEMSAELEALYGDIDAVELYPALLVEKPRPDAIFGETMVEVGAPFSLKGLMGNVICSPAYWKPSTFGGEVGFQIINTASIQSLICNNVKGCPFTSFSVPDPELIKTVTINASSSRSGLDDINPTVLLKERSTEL
Procedure: as §2

[6] = target: T2, COX-2; test: Human whole blood assay, COX-2 (LPS-induced PGE2 production); assay type: cell-based; conditions: LPS-induced PGE2, 24 hours at 37°C
Procedure: as §1, with “in heparinized tubes by venipuncture from both male and female volunteers. The subjects have” for “into vacutainers containing”, “apparent inflammatory conditions and have not taken any NSAIDs for at least 7 days prior to blood collection.” for “anticoagulants.”

IC50 [1] [nM] | IC50 [2] [nM] | IC50 [3] [nM] | IC50 [5] [nM] | IC50 [6] [nM] | IC50 ([3]; unit inferred) [nM] | SMILES | ED50 [4] [mg/kg]
77000 | 11000 | > 50000 | 30 | 450 |  | CS(=O)(=O)c1ccc(C2=C(c3cc(F)cc(F)c3)C(=O)CC2)cc1 [Compound A, 2-(3,5-difluorophenyl)-3-(4-(methylsulfonyl)phenyl)-2-cyclopenten-1-one] | 2.6
4400 | 450 |  | 20 | 120 | 17000 | CS(=O)(=O)c1ccc(C2=C(c3ccc(F)cc3)C(=O)CC2)cc1 [Compound B] | 3
